Patent publication US20250090510A1, “eIF4G1-eIF1 INHIBITORS AND USE THEREOF” (YEDA RESEARCH AND DEVELOPMENT CO. LTD., priority 2022, published 2025)

Tests used:
human blood cells = assay: Effect on host blood cells in the parasitemia assay; settings: i14G1-10 20 uM, i14G1-12 10 uM; 1 hour
Procedure: Parasitemia assay. The NF54 strain of the Plasmodium falciparum was used for the Survival test. Parasites were grown in RPMI medium pH 7.4, 25 mg/ml HEPES, 50 μg/ml hypoxanthine, 2 mg/ml sodium bicarbonate, 20 μg/ml gentamycin, and 0.5% (w/v) Albumax II (Invitrogen). Pooled donor red blood cells, provided by the Israeli blood bank, at 4% hematocrit, and incubated at 37° C. in a gas mixture of 1% 02, 5% CO2 in N2 were used.
Parasitaemia levels were measured 24 hours later.

HEK293T cells = assay: TCP-seq (translation complex profiling) of 48S footprints; assay type: cell-based, human; settings: 5 μM, one hour
Excerpt: FIGS. 9A-H: Inhibition of eIF1-eIF4G1 leads to 48S instability and scanning defect (9A) Polysome profiles of HEK293T cells treated with DMSO or i14G1-12 after crosslinking with formaldehyde, lysis and Rnase I digestion. The grey layer represents the fractions corresponding to the 40S ribosome used for the TCP-seq library preparation. (9B) Heatmap representing the log 2 mean of the relative number of reads mapping to the individual tRNAs in i14G1-12 over DMSO (n=3). The number of reads was normalized to the codon frequency in the human transcriptome. (9C) Volcano plot showing log 2 fold change (FC) of the abundance of each tRNAs comparing i14G1-12 over DMSO with FDR <0.05 and a log 2 FC threshold of 1. (9D) Histograms showing the relative number of reads mapping to mRNA in DMSO vs. i14G1-12. (9E) Metagene plots of normalized ribosome footprints (RPFs) counts on leader region. Numbers indicate the slope of the regression lines. (9F) Volcano plot showing log 2 fold change of the differential initiation analysis in i14G1-12 over DMSO. […] (9G) Bar chart of the relative number of reads mapping to each mRNA feature in DMSO and i14G-12.
FIGS. 10A-J: Definition of leaky scanning and its regulation by specific mRNA features and eIF1-eIF4G1. (10A) Metagene plots of normalized ribosome footprints (RPFs) counts on CDS region. (10B) Scatter plot representing the leaky scanning score (LS) of transcripts in i14G1-12 versus DMSO. Transcripts with a significant LS (FDR <0.05) in DMSO and i14G1-12 are highlighted. […] (10D) Boxplots of the leaky scanning score in DMSO and in i14G1-12. […] (10F) Plot of the mean GC content in a 20 nt window around the start codon of leaky and non-leaky transcripts in DMSO and i14G1-12. (10G) Boxplot representing the log 5′ UTR length of leaky and non-leaky transcripts in DMSO and i14G1-12.
HEK293T cells were grown to 90% confluence at 37° C. in a humidified incubator supplemented with 5% CO2. Cells were treated with DMSO or 5 μM i14G1-12 for 1 hour. After treatment, cells were directly removed from the incubator and treated with 0.15% formaldehyde for 10 min on ice with slow shaking. The reaction was stopped by adding 37.5 mM glycine for 5 minutes. Media was aspirated and the plates were washed with cold PBS. Cells were lysed with fresh lysis buffer (100 mM KCl, 20 mM Tris-HCl pH 8, 1.5 mM MgCl2, 1.5% (v/v) NP-40, 2 mM DTT) supplemented with protease inhibitor for 20 min in a cold room with slow agitation. Lysates were clarified by centrifugation at 20,000 g. RNA amount was quantified by nanodrop. 10% of the lysate was kept and snap freeze for total RNA extraction. Digestion was performed by the addition of 0.0075 U Rnase I per μg of RNA to the lysate for 30 min at room temperature. Digestion was stopped by adding a Super RNase inhibitor (ThermoFischer). Lysates were loaded onto a 5-45% sucrose gradient (100 mM KCl, 20 mM HEPES pH 7, 5 mM MgCl2, 2 mM DTT) and centrifuged at 39000 rpm for two hours and forty-five minutes in an SW41 rotor at 4° C. Gradients were analyzed through a UV lamp (254 nm) and an Absorbance detector while being fractionated in 250 μL fractions using a Foxy Junior Fraction Collector (Isco).
RNA from the undigested extract and the sucrose gradient fractions corresponding to the 40S were extracted by addition of 1 mL or one volume of TRIzol respectively. Samples were heated at 65° C. for 15 minutes and vortexed every five minutes. Extraction was continued by addition of chloroform and alcohol precipitation of the aqueous phase. RNA-seq libraries were prepared with the TruSeq stranded RNA Library Prep (Illumina). TCP-seq libraries were prepared as described herein by selecting footprints reads with a length ranging from 16 nt to 85 nt. Libraries were sequenced at the iGE3 Genomic Platform (UNIGE) on a Hiseq 4000. […]

Row | Structure (SMILES) | effect on human blood cells (human blood cells) | iMet tRNA abundance in 48S fractions (HEK293T cells; relative to DMSO) | number of reads mapping to mRNAs (HEK293T cells; relative to DMSO) | number of leaky genes (LS >3) (HEK293T cells; DMSO n=637) | number of non-leaky genes (LS<−3) (HEK293T cells; DMSO n=1223) | number of downregulated differentially scanned genes (HEK293T cells; log 2 FC threshold 1, FDR 0.05) | number of upregulated differentially scanned genes (HEK293T cells; log 2 FC threshold 1, FDR 0.05)
1 | O=C(/C=C/Sc1ccc(C(F)(F)F)cn1)c1ccccc1 [i14G1-10] | not adversely affected |  |  |  |  |  | 
2 | Cn1ccnc1S/C(=C/C=C(C#N)C#N)c1ccc(Cl)cc1 [i14G1-12] |  | most downregulated tRNA | significantly decreased | 1266 genes | 325 genes | 476 genes | 10 genes
